Reference: patent publication US20250313563A1, “GLYCOGEN SYNTHASE KINASE 3 INHIBITORS AND USES THEREOF” (The Broad Institute, Inc., priority 2022, published 2025)
pIC50: −log10 of the molar value. Like-named read-outs stand apart in the source and are kept apart here.

How the values were obtained:
[1] = target: GSK3α (GST-full length GSK3α) (Homo sapiens (Human), UniProt P49840); assay: GSK3α TR-FRET kinase assay; format: biochemical
Outline: (§1)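 1 nM GST-GSK3α/β + cpd, 30 min preinc; add 200 nM biotin-pS645 GS(631-650) peptide + ATP (α 4 μM / β 2 μM, or 1 mM); 100 min RT, 50 mM Tris pH 7.5, 20 mM MgCl2, 1% DMSO; EDTA stop; SA-d2/Tb-pSer641 Ab 60 min; 665/615 ratio → IC50.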

[2] = target: GSK3b (GST-full length GSK3b) (Homo sapiens (Human), UniProt P49841); assay: GSK3b TR-FRET kinase assay; format: biochemical
Sequence of GSK3b (GST-full length GSK3b) (P49841 whole entry): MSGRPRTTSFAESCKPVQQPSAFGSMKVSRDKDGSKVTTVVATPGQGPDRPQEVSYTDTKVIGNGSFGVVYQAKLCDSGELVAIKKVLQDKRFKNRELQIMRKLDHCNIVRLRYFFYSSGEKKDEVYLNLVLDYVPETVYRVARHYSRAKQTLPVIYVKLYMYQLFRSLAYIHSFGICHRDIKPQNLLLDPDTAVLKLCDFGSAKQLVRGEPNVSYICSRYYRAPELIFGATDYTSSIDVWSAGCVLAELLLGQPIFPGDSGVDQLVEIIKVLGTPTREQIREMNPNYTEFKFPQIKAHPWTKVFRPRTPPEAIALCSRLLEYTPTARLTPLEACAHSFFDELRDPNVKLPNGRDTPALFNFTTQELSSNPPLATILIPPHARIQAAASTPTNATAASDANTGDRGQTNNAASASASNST
Outline: as §1

[3] = 1 nM GSK3α, 4 μM ATP, 30 minute preincubation, Table 16, read-out: GSK3-A TR-FRET BIOCHEMICAL (TR-FRET), IC50
[4] = 1 nM GSK3b, 2 μM ATP, 30 minute preincubation, Table 16, read-out: GSK3-B TR-FRET BIOCHEMICAL (TR-FRET), IC50
[5] = 1 nM GSK3α, 4 μM ATP, 30 minute preincubation, Table 16, read-out: GSK3-A TR-FRET BIOCHEMICAL (TR-FRET)
[6] = 1 nM GSK3b, 2 μM ATP, 30 minute preincubation, Table 16, read-out: GSK3-B TR-FRET BIOCHEMICAL (TR-FRET)

Sequence of GSK3α (GST-full length GSK3α) (P49840 whole entry): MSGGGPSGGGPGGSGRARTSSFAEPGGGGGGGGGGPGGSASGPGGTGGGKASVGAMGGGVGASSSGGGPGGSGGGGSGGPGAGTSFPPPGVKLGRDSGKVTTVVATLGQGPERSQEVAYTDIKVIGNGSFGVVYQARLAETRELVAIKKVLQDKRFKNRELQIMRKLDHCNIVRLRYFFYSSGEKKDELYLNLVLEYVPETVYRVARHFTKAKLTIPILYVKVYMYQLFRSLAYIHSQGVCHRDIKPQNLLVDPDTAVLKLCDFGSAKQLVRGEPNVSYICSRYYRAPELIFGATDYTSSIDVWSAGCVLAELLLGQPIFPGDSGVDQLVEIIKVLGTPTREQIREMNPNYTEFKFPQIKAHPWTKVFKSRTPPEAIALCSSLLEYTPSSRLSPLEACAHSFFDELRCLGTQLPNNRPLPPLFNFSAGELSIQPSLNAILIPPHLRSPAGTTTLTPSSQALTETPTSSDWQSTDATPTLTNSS

pIC50 [1, 3] | pIC50 [2, 4] | Compound | further results
6.00 to 7.00 | < 5.30 | CC[C@]1(c2cccc(-c3cnn(C(C)C)c3F)c2)C2=C(CC(C)(C)NC2=O)Nc2n[nH]cc21 [Compound 950061] | 
≥ 7.00 | 5.30 to 6.00 | CCC1(c2cccc(Cc3ncccn3)c2)C2=C(CC(C)(C)NC2=O)Nc2n[nH]cc21 (stereo not drawn) [Compound 950151] | 
 |  | CC[C@]1(c2ccccc2)C2=C(C[C@@]3(CCNC3=O)CC2=O)Nc2n[nH]cc21 [Compound 950160] | pIC50 [1, 5]: 5.30 to 6.00; pIC50 [2, 6]: < 5.30
 |  | CC[C@@]1(c2ccccc2)C2=C(C[C@@]3(CCNC3=O)CC2=O)Nc2n[nH]cc21 [Compound 950161] | pIC50 [1, 5]: 5.30 to 6.00; pIC50 [2, 6]: < 5.30
6.00 to 7.00 | 6.00 to 7.00 | CCC1(c2cccc(-c3ccnc(C)c3)c2)C2=C(CC(C)(C)NC2=O)Nc2n[nH]c(C(F)F)c21 (stereo not drawn) [Compound 950162] | 
 |  | CC[C@@]1(c2ccccc2)C2=C(C[C@]3(CCNC3=O)CC2=O)Nc2n[nH]cc21 [Compound 950164] | pIC50 [1, 5]: < 5.30; pIC50 [2, 6]: < 5.30
 |  | CC[C@]1(c2ccccc2)C2=C(C[C@]3(CCNC3=O)CC2=O)Nc2n[nH]cc21 [Compound 950165] | pIC50 [1, 5]: < 5.30; pIC50 [2, 6]: < 5.30
≥ 7.00 | 5.30 to 6.00 | CC[C@]1(c2cccc(-c3cnn(C(F)F)c3)c2)C2=C(CC(C)(C)NC2=O)Nc2n[nH]cc21 [Compound 950254] | 
≥ 7.00 | 6.00 to 7.00 | CC[C@@]1(c2cccc(C(F)(F)F)c2)C2=C(CC(C)(C)C2=O)Nc2n[nH]cc21 [Compound 950272] | 
< 5.30 | < 5.30 | CCC1(c2cccc(C(F)(F)F)c2)C2=C(CC(C)(C)C2=O)Nc2n[nH]cc21 (stereo not drawn) [Compound 950273] | 
≥ 7.00 | 6.00 to 7.00 | CC[C@@]1(c2cccc(-c3ccnc(C)c3)c2)C2=C(CC(C)(C)C2=O)Nc2n[nH]cc21 [Compound 950282] | 
≥ 7.00 | ≥ 7.00 | CCC1(c2cccc(Oc3ncccn3)c2)C2=C(CC(C)(C)NC2=O)Nc2n[nH]c(Cl)c21 (stereo not drawn) [Compound 950318] | 
≥ 7.00 | ≥ 7.00 | CCC1(c2cccc(-c3ccncc3F)c2)C2=C(CC(C)(C)NC2=O)Nc2n[nH]c(C(F)F)c21 (stereo not drawn) [Compound 950320] | 
≥ 7.00 | ≥ 7.00 | CCC1(c2cccc(Oc3ncccn3)c2)C2=C(CC(C)(C)NC2=O)Nc2n[nH]c(C(F)(F)F)c21 (stereo not drawn) [Compound 950323] | 
 |  | CCC1(c2cccc(C(F)(F)F)c2)C2=C(CC3(CCNC3=O)CC2=O)Nc2n[nH]cc21 (stereo not drawn) [Compound 950324] | pIC50 [1, 5]: ≥ 7.00; pIC50 [2, 6]: 6.00 to 7.00
 |  | CC[C@]1(c2cccc(C(F)(F)F)c2)C2=C(C[C@@]3(CCN(C)C3=O)CC2=O)Nc2n[nH]cc21 [Compound 950325] | pIC50 [1, 5]: < 5.30; pIC50 [2, 6]: < 5.30
 |  | CCC1(c2cccc(C(F)(F)F)c2)C2=C(CC3(CCN(C)C3=O)CC2=O)Nc2n[nH]cc21 (stereo not drawn) [Compound 950329] | pIC50 [1, 5]: ≥ 7.00; pIC50 [2, 6]: ≥ 7.00
 |  | CCC1(c2cccc(C(F)(F)F)c2)C2=C(CC3(CCN(C)C3=O)CC2=O)Nc2n[nH]cc21 (stereo not drawn) [Compound 950330] | pIC50 [1, 5]: 6.00 to 7.00; pIC50 [2, 6]: < 5.30
 |  | CCC1(c2cccc(C(F)(F)F)c2)C2=C(CC3(CCNC3=O)CC2=O)Nc2n[nH]cc21 (stereo not drawn) [Compound 950331] | pIC50 [1, 5]: 6.00 to 7.00; pIC50 [2, 6]: < 5.30
 |  | CC[C@@]1(c2cccc(C(F)(F)F)c2)C2=C(C[C@]3(CCNC3=O)CC2=O)Nc2n[nH]cc21 [Compound 950332] | pIC50 [1, 5]: < 5.30; pIC50 [2, 6]: < 5.30
 |  | CC[C@@]1(c2cccc(C(F)(F)F)c2)C2=C(C[C@@]3(CCNC3=O)CC2=O)Nc2n[nH]cc21 [Compound 950333] | pIC50 [1, 5]: ≥ 7.00; pIC50 [2, 6]: 6.00 to 7.00
 |  | Cc1nccc([C@H]2CC[C@]3(CC2)C2=C(CC(C)(C)CC2=O)Nc2n[nH]cc23)c1C [Compound 950477] | pIC50 [1, 5]: 6.00 to 7.00; pIC50 [2, 6]: 6.00 to 7.00
 |  | Cc1nccc([C@H]2CC[C@@]3(CC2)C2=C(CC(C)(C)CC2=O)Nc2n[nH]cc23)c1C [Compound 950478] | pIC50 [1, 5]: ≥ 7.00; pIC50 [2, 6]: ≥ 7.00
≥ 7.00 | 6.00 to 7.00 | CCC1(c2cccc(C(F)(F)F)c2)C2=C(CCN(c3cn[nH]c3)C2=O)Nc2n[nH]cc21 (stereo not drawn) [Compound 950479] | 
≥ 7.00 | ≥ 7.00 | CCC1(c2cccc(N(C)c3ncccn3)c2)C2=C(CC(C)(C)NC2=O)Nc2n[nH]c(C(F)F)c21 (stereo not drawn) [Compound 950484] | 
6.00 to 7.00 | 5.30 to 6.00 | CCC1(c2cccc(C(F)(F)F)c2)C2=C(CCN(c3nn(C)cc3C)C2=O)Nc2n[nH]cc21 (stereo not drawn) [Compound 950486] | 

pIC50 [1, 3] | pIC50 [2, 4] | Compound | further results
6.00 to 7.00 | 6.00 to 7.00 | CC[C@]1(c2cccc(C(C)C)c2)C2=C(CC(C)(C)NC2=O)Nc2n[nH]c(C(F)(F)F)c21 [Compound 950493] | 
≥ 7.00 | 6.00 to 7.00 | CC[C@]1(c2cccc(-c3cnn(C)c3F)c2)C2=C(CC(C)(C)NC2=O)Nc2n[nH]cc21 [Compound 950562] | 
≥ 7.00 | 6.00 to 7.00 | CC[C@]1(c2cccc(-c3cnn4c3CC(C)(C)CC4)c2)C2=C(CC(C)(C)NC2=O)Nc2n[nH]cc21 [Compound 950564] | 
6.00 to 7.00 | 5.30 to 6.00 | CCC1(c2cccc(C(F)(F)F)c2)C2=C(CCN(c3cc(C)n(C)n3)C2=O)Nc2n[nH]cc21 (stereo not drawn) [Compound 950608] | 
≥ 7.00 | 5.30 to 6.00 | CCC1(c2cccc(C(F)(F)F)c2)C2=C(CCN(c3cnn(C)c3C)C2=O)Nc2n[nH]cc21 (stereo not drawn) [Compound 950612] | 
≥ 7.00 | 6.00 to 7.00 | CCC1(c2cccc(C(F)(F)F)c2)C2=C(CCN(c3cccs3)C2=O)Nc2n[nH]cc21 (stereo not drawn) [Compound 950614] | 
≥ 7.00 | 6.00 to 7.00 | CCC1(c2cccc(Oc3ncccn3)c2)C2=C(CC(C)(C)NC2=O)Nc2n[nH]c(F)c21 (stereo not drawn) [Compound 950615] | 
≥ 7.00 | 6.00 to 7.00 | CCC1(c2cccc(C(F)(F)F)c2)C2=C(CCN(c3ccsc3)C2=O)Nc2n[nH]cc21 (stereo not drawn) [Compound 950776] | 
≥ 7.00 | 6.00 to 7.00 | CCC1(c2cccc(-c3cn(C)nc3C)c2)C2=C(CC3(CCS(=O)(=O)CC3)NC2=O)Nc2n[nH]cc21 (stereo not drawn) [Compound 950813] | 
 |  | CC1(C)CC(=O)C2=C(Nc3n[nH]cc3C23CCN(S(=O)(=O)C2CC2)CC3)C1F (stereo not drawn) [Compound 950814] | pIC50 [1, 5]: ≥ 7.00; pIC50 [2, 6]: ≥ 7.00
6.00 to 7.00 | 5.30 to 6.00 | CCC1(c2cccc(-c3c(C)nnn3C)c2)C2=C(CC(C)(C)C2=O)Nc2n[nH]cc21 (stereo not drawn) [Compound 950815] | 
< 5.30 | < 5.30 | CC[C@]1(c2cccc(C3CC3)c2)C2=C(CC(C)(C)NC2=O)Nc2n[nH]cc21 [Compound 950817] | 
6.00 to 7.00 | 5.30 to 6.00 | CCC1(c2cccc(-c3cc(C)nn3C)c2)C2=C(CC(C)(C)C2=O)Nc2n[nH]cc21 (stereo not drawn) [Compound 950818] | 
6.00 to 7.00 | 5.30 to 6.00 | CC[C@@]1(c2cccc(-c3cnn(C)c3)c2)C2=C(CC(C)(C)C2=O)Nc2n[nH]cc21 [Compound 950819] | 
6.00 to 7.00 | 6.00 to 7.00 | CC[C@]1(c2cccc(-c3ccnn3-c3ccc(F)cc3)c2)C2=C(CC(C)(C)NC2=O)Nc2n[nH]cc21 [Compound 950822] | 
≥ 7.00 | ≥ 7.00 | CC[C@]1(c2cccc(-c3ccnn3C3CC3(F)F)c2)C2=C(CC(C)(C)NC2=O)Nc2n[nH]cc21 (stereo partly drawn) [Compound 950824] | pIC50 ([1]; GSK3-A (TR-FRET 1 mM ATP), GMean, IC50, 1 mM ATP, geometric mean): 6.00 to 7.00; pIC50 ([2]; GSK3-B (TR-FRET 1 mM ATP), GMean, IC50, 1 mM ATP, geometric mean): 6.00 to 7.00
< 5.30 | < 5.30 | CCC1(c2cccc(-c3c(C)cnc4ccccc34)c2)C2=C(CC(C)(C)NC2=O)Nc2n[nH]cc21 (stereo not drawn) [Compound 950825] | 
< 5.30 | < 5.30 | CCC1(c2cccc(-c3cnn(C)c3)c2)C2=C(CC(C)(C)C2=O)Nc2n[nH]cc21 (stereo not drawn) [Compound 950826] | 
< 5.30 | < 5.30 | CC[C@@]1(c2cccc(-c3cc(C)nn3C)c2)C2=C(CC(C)(C)C2=O)Nc2n[nH]cc21 [Compound 950827] | 
≥ 7.00 | 6.00 to 7.00 | CC[C@]1(c2cccc(C3CC3)c2)C2=C(CC(C)(C)NC2=O)Nc2n[nH]cc21 [Compound 950828] | pIC50 ([1]; read-out: GSK3-A (TR-FRET 1 mM ATP), GMean, IC50, 1 mM ATP, geometric mean): 5.30 to 6.00; pIC50 ([2]; read-out: GSK3-B (TR-FRET 1 mM ATP), GMean, IC50, 1 mM ATP, geometric mean): < 5.30
≥ 7.00 | 6.00 to 7.00 | CC[C@]1(c2cccc(-c3cnn4cccnc34)c2)C2=C(CC(C)(C)NC2=O)Nc2n[nH]cc21 [Compound 950830] | 
≥ 7.00 | 6.00 to 7.00 | CC[C@@]1(c2cccc(C(F)(F)F)c2)C2=C(CCC2=O)Nc2n[nH]cc21 [Compound 951565] | 
< 5.30 | < 5.30 | CC[C@]1(c2cccc(N(C)c3ncccn3)c2)C2=C(CC(C)(C)NC2=O)Nc2n[nH]c(Cl)c21 [Compound 951592] | 
6.00 to 7.00 | < 5.30 | CCC1(c2cccc(C(F)(F)F)c2)C2=C(CCN(c3ncn(C)c3C)C2=O)Nc2n[nH]cc21 (stereo not drawn) [Compound 951598] | 
6.00 to 7.00 | 6.00 to 7.00 | CCC1(c2cccc(-c3ccncc3F)c2)C2=C(CC(C)(C)NC2=O)Nc2n[nH]c(C(F)F)c21 (stereo not drawn) [Compound 951599] | 
≥ 7.00 | 6.00 to 7.00 | CCC1(c2cccc(Oc3ncccn3)c2)C2=C(CC(C)(C)CC2=O)Nc2n[nH]c(C(F)(F)F)c21 (stereo not drawn) [Compound 951604] | 
